Square brackets hold non-standard residues; d marks the D form. Peptide text beside a SMILES is read from it. Cha = N[C@@H](CC1CCCCC1)C(=O)O
What was measured:
[1] = target: T1, E. coli SC (^EcSC, beta ring, DnaN) (Escherichia coli, UniProt P0A988); assay: ITC, peptide interaction with E. coli sliding clamp; format: binding
T1 construct: inferred from the pET15b vector and the Ni-NTA/imidazole purification; made in house; host or cells: E. coli BL21 (DE3) pLys

[2] = system: E. coli 70S ribosome (^Ec70S); assay: ITC, peptide interaction with E. coli 70S ribosome; format: binding
[3] = ITC 25° C., E. coli SC (beta ring)
[4] = ITC 30° C. (303.15 K), Table 2A, ^EcSC, Ni = no specific interaction
[5] = ITC 30° C., Table 2A, ^EcSC, Ni = no specific interaction
[6] = ITC 30° C., Table 2B, ^Ec70S, Ni = no specific interaction
[7] = ITC 30° C., Table 2B, ^Ec70S, Ni = no specific interaction, FITC peptides (*) values not well defined
[8] = ITC 25° C., E. coli ribosome (70S)
[9] = ITC, 30° C., E. coli ribosome, FITC-Onc112 series

T1 sequence (P0A988 whole entry): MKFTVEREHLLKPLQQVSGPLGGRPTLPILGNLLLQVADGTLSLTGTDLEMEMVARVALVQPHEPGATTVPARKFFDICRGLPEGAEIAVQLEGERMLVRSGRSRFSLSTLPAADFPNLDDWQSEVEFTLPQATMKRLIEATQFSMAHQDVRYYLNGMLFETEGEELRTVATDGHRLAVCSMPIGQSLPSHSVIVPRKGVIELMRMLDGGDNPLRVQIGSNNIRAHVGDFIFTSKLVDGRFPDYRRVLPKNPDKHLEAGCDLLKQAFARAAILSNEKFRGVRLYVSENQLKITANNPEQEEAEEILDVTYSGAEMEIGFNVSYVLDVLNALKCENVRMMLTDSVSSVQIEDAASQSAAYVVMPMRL

| Structure (SMILES) | ΔG [1, 3] [kcal/mol] | ΔH [1, 3] [kcal/mol] | ΔH [1, 4] [kcal/mol] | ΔG [1, 5] [kcal/mol] | −TΔS [1, 5] [kcal/mol] | interaction with ^Ec70S, in words ([2]; ITC 30° C.) | interaction with ^EcSC, in words ([1]; ITC 30° C.) | Kd [2, 6] [nM] | ΔG [2, 7] [kcal/mol] | ΔH [2, 7] [kcal/mol] | −TΔS [2, 7] [kcal/mol] | ΔH (kcal/mole) [1, 4] | Kd (nM) [1, 5] | ΔG (kcal/mole) [1, 5] | −TΔS (kcal/mole) [1, 5] | further results |
| --- | --- | --- | --- | --- | --- | --- | --- | --- | --- | --- | --- | --- | --- | --- | --- | --- |
| CC(=O)N[C@@H](CCC(N)=O)C(=O)N[C@@H](CC1CCCCC1)C(=O)N[C@@H](CC(=O)O)C(=O)N[C@@H](CC(C)C)C(=O)N[C@@H](Cc1ccccc1)C(=O)O [Peptide P7, Ac-QChaDLF-OH, reference compound] (Ac-Q[Cha]DLF-OH) | -9.2 | -15.4 | -13.7 | -9.00 | 4.71 | does not specifically bind | – | – | – | – | – | – | – | – | – | ΔH ([1]; ITC 30° C., E.coli SC, specificity comparison with PCNA): -12.05 kcal/mol; Kd ([1]; dissociation constant (Kd) for ^EcSC, at 30° C.): 400 nM; fold increase of affinity for ^EcSC compared to natural SC binding peptide (RQLVLGL) ([1]; versus RQLVLGL from E. coli DNA polymerase IV): 50 fold; Kd (nM) [2, 6]: Ni; ΔG (kcal/mole) [2, 7]: Ni; ΔH (kcal/mole) [2, 7]: Ni; −TΔS (kcal/mole) [2, 7]: Ni |
| CC[C@H](C)[C@H](NC(=O)[C@@H](CCCNC(=N)N)NC(=O)[C@H](CCCNC(=N)N)NC(=O)[C@@H]1CCCN1C(=O)[C@@H]1CCCN1C(=O)[C@H](CCCNC(=N)N)NC(=O)[C@@H]1CCCN1C(=O)[C@H](CCCNC(=N)N)NC(=O)[C@@H]1CCCN1C(=O)[C@H](CC(C)C)NC(=O)[C@H](Cc1ccc(O)cc1)NC(=O)[C@@H]1CCCN1C(=O)[C@@H]1CCCN1C(=O)[C@H](CCCCN)NC(=O)[C@H](CC(=O)O)NC(=O)[C@@H](N)C(C)C)C(=O)N[C@@H](Cc1ccc(O)cc1)C(=O)N[C@@H](CC(N)=O)C(=O)N[C@H](CCCNC(=N)N)C(=O)N[C@@H](CC(N)=O)C(=O)NCC(=O)N1CCC[C@H]1C(=O)N[C@@H](CCCNC(=N)N)C(=O)N[C@@H](CCC(N)=O)C(=O)N[C@@H](CC1CCCCC1)C(=O)N[C@@H](CC(=O)O)C(=O)N[C@@H](CC(C)C)C(=O)N[C@@H](Cc1ccccc1)C(=O)O [Peptide P30] (H-VDKPPYLPRPRPPR[dR]IYN[dR]NGPRQ[Cha]DLF-OH) | -9.2 | -14.6 | -13.5 | -9.28 | 4.2 | efficiently interact | as efficiently as P7 alone | 70.4 | -9.92 | -25.6 | 15.7 | – | – | – | – | affinity for the ribosome relative to affinity for SC ([2]; from Table 2, ^Ec70S versus ^EcSC): three times higher affinity |
| CC[C@H](C)[C@H](NC(=O)[C@@H](CCCNC(=N)N)NC(=O)[C@H](CCCNC(=N)N)NC(=O)[C@@H]1CCCN1C(=O)[C@@H]1CCCN1C(=O)[C@H](CCCNC(=N)N)NC(=O)[C@@H]1CCCN1C(=O)[C@H](CCCNC(=N)N)NC(=O)[C@@H]1CCCN1C(=O)[C@H](CC(C)C)NC(=O)[C@H](Cc1ccc(O)cc1)NC(=O)[C@@H]1CCCN1C(=O)[C@@H]1CCCN1C(=O)[C@H](CCCCN)NC(=O)[C@H](CC(=O)O)NC(=O)[C@@H](N)C(C)C)C(=O)N[C@@H](Cc1ccc(O)cc1)C(=O)N[C@@H](CC(N)=O)C(=O)N[C@H](CCCNC(=N)N)C(N)=O [Peptide P28, reference compound] (H-VDKPPYLPRPRPPR[dR]IYN[dR]-NH2; N-terminus assumed) | – | – | – | – | – | – | do not interact | 84 | -9.82 | -23.9 | 14.0 | Ni | Ni | Ni | Ni | Kd [2, 8]: 241 nM; ΔG (kcal/mol) [2, 8]: −9.2 (±0.1) kcal/mol; ΔH (kcal/mol) [2, 8]: −16.2 (±0.3) kcal/mol; affinity for ^Ec70S relative to Py ([2]; ITC 30° C.): fivefold lower; Kd ([2]; ITC 30° C., Table 2B, ^Ec70S, Ni = no specific interaction, listed as Onc112): ~84 nM; Kd [2, 9]: 241 nM; ΔG (kcal/mol) [2, 9]: −9.2 (±0.1) kcal/mol; ΔH (kcal/mol) [2, 9]: −16.2 (±0.3) kcal/mol |
| CC[C@H](C)[C@H](NC(=O)[C@@H]1CCCN1C(=O)[C@H](CCCNC(=N)N)NC(=O)[C@@H]1CCCN1C(=O)[C@@H]1CCCN1C(=O)[C@@H](NC(=O)[C@@H]1CCCN1C(=O)[C@H](CCCNC(=N)N)NC(=O)[C@@H]1CCCN1C(=O)[C@H](CC(C)C)NC(=O)[C@H](Cc1ccc(O)cc1)NC(=O)[C@H](CO)NC(=O)CNC(=O)[C@H](CCCCN)NC(=O)[C@H](CC(=O)O)NC(=O)[C@@H](NC(=O)[C@H](CCCCN)NC(=O)c1ccc2c(c1)C(=O)OC21c2ccc(O)cc2Oc2cc(O)ccc21)C(C)C)[C@@H](C)O)C(=O)N[C@@H](Cc1ccc(O)cc1)C(=O)N[C@@H](CC(N)=O)C(=O)N[C@@H](CCCNC(=N)N)C(=O)N[C@@H](CC(N)=O)C(=O)NCC(=O)N1CCC[C@H]1C(=O)N[C@@H](CCCNC(=N)N)C(=O)N[C@@H](CCC(N)=O)C(=O)N[C@@H](CC1CCCCC1)C(=O)N[C@@H](CC(=O)O)C(=O)N[C@@H](CC(C)C)C(=O)N[C@@H](Cc1ccccc1)C(=O)O [Peptide P150] | – | – | -17.2 | -8.99 | 8.21 | – | similarly interacts | – | -6.27 | -13 | 6.7 | – | – | – | – | Kd ([2]; ITC 30° C., Table 2B, ^Ec70S, FITC peptides (*), values not well defined, weak interaction): > 10000 nM |
| CC[C@H](C)[C@H](NC(=O)[C@@H](CCCNC(=N)N)NC(=O)[C@H](CCCNC(=N)N)NC(=O)[C@@H]1CCCN1C(=O)[C@@H]1CCCN1C(=O)[C@H](CCCNC(=N)N)NC(=O)[C@@H]1CCCN1C(=O)[C@H](CCCNC(=N)N)NC(=O)[C@@H]1CCCN1C(=O)[C@H](CC(C)C)NC(=O)[C@H](Cc1ccc(O)cc1)NC(=O)[C@@H]1CCCN1C(=O)[C@@H]1CCCN1C(=O)[C@H](CCCCN)NC(=O)[C@H](CC(=O)O)NC(=O)[C@@H](N)C(C)C)C(=O)N[C@@H](Cc1ccc(O)cc1)C(=O)N[C@@H](CC(N)=O)C(=O)N[C@H](CCCNC(=N)N)C(=O)N[C@@H](CC(N)=O)C(=O)NCC(=O)N1CCC[C@H]1C(=O)N[C@@H](CCCNC(=N)N)C(=O)N[C@@H](CC1CCCCC1)C(=O)N[C@@H](Cc1ccccc1)C(=O)N[C@@H](CCC(N)=O)C(=O)N[C@@H](CC(C)C)C(=O)N[C@@H](CC(=O)O)C(=O)O [Peptide P120] (H-VDKPPYLPRPRPPR[dR]IYN[dR]NGPR[Cha]FQLD-OH) | – | – | – | – | – | – | fail to interact | 101 | -9.85 | -13 | 3.12 | Ni | Ni | Ni | Ni | – |
